Numbered stars: 1 amine (or outer) side, 2 acyl side, 3 side chain; on linkers, the order of the positions; unused ones are H or OH. Bridge positions count the residues as written; N and C are the ends. Square brackets hold non-standard residues; d marks the D form. Peptide text beside a SMILES is read from it. X1 = O=S(=O)(F)Oc1cc(C[*:1])cc(C[*:2])c1; X2 = Oc1cc(C[*:1])cc(C[*:2])c1; Pra = C#CC[C@H](N)C(=O)O
Legend:
[1] = system: interaction between Omicron BA2 spike and ACE2; assay type: binding, SARS-CoV-2
BSA = BSA (Bos taurus, UniProt P02769); assay type: binding; conditions: highest concentration tested
SARS-CoV-2 omicron BA.2 = assay type: cell-based

Chain of BSA (P02769 25-607): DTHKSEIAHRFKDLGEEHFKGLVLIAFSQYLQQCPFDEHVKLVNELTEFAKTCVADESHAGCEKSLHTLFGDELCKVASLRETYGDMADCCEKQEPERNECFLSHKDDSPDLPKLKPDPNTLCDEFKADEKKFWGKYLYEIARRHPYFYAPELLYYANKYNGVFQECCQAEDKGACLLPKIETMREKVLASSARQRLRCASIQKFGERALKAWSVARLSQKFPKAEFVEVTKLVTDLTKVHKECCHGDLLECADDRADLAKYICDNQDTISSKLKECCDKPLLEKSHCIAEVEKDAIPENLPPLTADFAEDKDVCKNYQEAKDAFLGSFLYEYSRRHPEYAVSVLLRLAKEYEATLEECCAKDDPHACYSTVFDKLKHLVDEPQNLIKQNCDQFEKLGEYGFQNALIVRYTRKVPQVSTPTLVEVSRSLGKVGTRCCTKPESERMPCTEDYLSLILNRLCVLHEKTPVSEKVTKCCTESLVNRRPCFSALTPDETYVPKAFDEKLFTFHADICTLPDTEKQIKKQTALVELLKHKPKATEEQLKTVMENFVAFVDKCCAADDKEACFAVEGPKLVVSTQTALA

Molecule	inhibition activity in MSD assay [1]	labeling of BSA (BSA)	antiviral activity (SARS-CoV-2 Omicron BA2)	antiviral activity (SARS-CoV-2 Omicron BA1)	antiviral activity (SARS-CoV-2 Omicron BA5)	change of inhibitory potency after 10-fold dilution (SARS-CoV-2 omicron BA.2)	EC50 (SARS-CoV-2 Omicron BA5) [µM]
C#CC[C@H](N)C(=O)N[C@@H](CCC(N)=O)C(=O)N[C@H]1CSCc2cc(cc(OS(=O)(=O)F)c2)CSC[C@@H](C(=O)NCC(N)=O)NC(=O)[C@H](CC(C)C)NC(=O)[C@H](C(C)C)NC(=O)[C@H](Cc2ccc(O)cc2)NC(=O)[C@H](CC(C)C)NC(=O)[C@H](CC(=O)O)NC(=O)[C@H](CCC(N)=O)NC(=O)[C@H](C(C)C)NC1=O [CP_SW3A] (H-[Pra]QCVQDLYVLCG-NH2; linker 3-11 via X1)	strong activity	only faint labeling					
C#CC[C@H](N)C(=O)N[C@@H](CCC(N)=O)C(=O)N[C@H]1CSCc2cc(O)cc(c2)CSC[C@@H](C(=O)NCC(N)=O)NC(=O)[C@H](CC(C)C)NC(=O)[C@H](C(C)C)NC(=O)[C@H](Cc2ccc(O)cc2)NC(=O)[C@H](CC(C)C)NC(=O)[C@H](CC(=O)O)NC(=O)[C@H](CCC(N)=O)NC(=O)[C@H](C(C)C)NC1=O [CP_SW3A_Bz] (H-[Pra]QCVQDLYVLCG-NH2; linker 3-11 via X2)			only weak background activity	only weak background activity	only weak background activity		
C#CC[C@H](N)C(=O)N[C@@H](CCC(N)=O)C(=O)N[C@H]1CSSC[C@@H](C(=O)NCC(N)=O)NC(=O)[C@H](CC(C)C)NC(=O)[C@H](C(C)C)NC(=O)[C@H](Cc2ccc(O)cc2)NC(=O)[C@H](CC(C)C)NC(=O)[C@H](CC(=O)O)NC(=O)[C@H](CCC(N)=O)NC(=O)[C@H](C(C)C)NC1=O [CP_SW3A_DS] (H-[Pra]QCVQDLYVLCG-NH2; disulfide 3-11)						dramatic loss of activity after dilution	
C#CC[C@H](NC(=O)[C@H](CCC(N)=O)NC(=O)[C@@H]1CSCc2cc(cc(OS(=O)(=O)F)c2)CSC[C@H](NC(=O)CN)C(=O)N[C@@H](CC(C)C)C(=O)N[C@@H](C(C)C)C(=O)N[C@@H](Cc2ccc(O)cc2)C(=O)N[C@@H](CC(C)C)C(=O)N[C@@H](CC(=O)O)C(=O)N[C@@H](CCC(N)=O)C(=O)N[C@@H](C(C)C)C(=O)N1)C(N)=O [CP_SW3A_S1] (H-GCLVYLDQVCQ[Pra]-NH2; linker 2-10 via X1)	loss of inhibition activities		only weak background activity	only weak background activity	only weak background activity		
C#CC[C@H](N)C(=O)N[C@@H](CCC(N)=O)C(=O)N[C@H]1CSCc2cc(cc(OS(=O)(=O)F)c2)CSC[C@@H](C(=O)NCC(N)=O)NC(=O)[C@H](C(C)C)NC(=O)[C@H](CCC(N)=O)NC(=O)[C@H](CC(=O)O)NC(=O)[C@H](CC(C)C)NC(=O)[C@H](Cc2ccc(O)cc2)NC(=O)[C@H](C(C)C)NC(=O)[C@H](CC(C)C)NC1=O [CP_SW3A_S2] (H-[Pra]QCLVYLDQVCG-NH2; linker 3-11 via X1)	loss of inhibition activities		only weak background activity	only weak background activity	only weak background activity		
Sotrovimab: monoclonal antibody targeting the spike protein of SARS-CoV-2, positive control [reference compound]							7

— PMC11580984 (bioRxiv, 2024)
